Publication PMC12260505, “First-in-Human Phase I/IIa Study of the First-in-Class CDK2/4/6 Inhibitor PF-06873600 Alone or with Endocrine Therapy in Patients with Breast Cancer” (Clinical Cancer Research, 2025)

Test: Dose-limiting toxicities in dose escalation (modified toxicity probability interval method)
Assay type: in vivo, human
Procedure: Part 1 included adult patients with HR^+/HER2^− advanced breast cancer or mBC (third- or fourth-line setting), locally recurrent/advanced or metastatic TNBC, or advanced platinum-resistant epithelial ovarian cancer/fallopian tube cancer/primary peritoneal cancer who received oral PF-06873600 at doses of 1 to 50 mg twice daily or oral PF-06873600 plus ET (letrozole or fulvestrant). Primary endpoints for part 1 dose escalation determined safety and tolerability to define dose-limiting toxicities (DLT), estimate the maximum tolerated dose, and select the recommended dose for expansion (RDE). Safety endpoints included adverse events (AE) characterized by type, frequency, severity [as graded by NCI Common Terminology Criteria for Adverse Events (CTCAE) version 4.03], timing, seriousness, and relationship to study therapy. Laboratory abnormalities were characterized by type, frequency, severity (as graded by NCI CTCAE version 4.03), timing, vital sign abnormalities, and heart rate–corrected QT interval (e.g., QTcF). Secondary endpoints included PK, preliminary antitumor activity as assessed using RECIST version 1.1, time-to-event endpoints including objective response rate (ORR), duration of response (DoR), progression-free survival (PFS), time to progression (TTP), and modulation of tumor CDK biomarkers [phosphorylated Rb (pRb), Ki67]. Exploratory endpoints included molecular profiling of tumor and ctDNA and the relationship to clinical outcome.
In part 1A, dose escalation monotherapy, patients received escalating doses of a single-agent immediate release (IR) formulation of PF-06873600, 1 to 50 mg twice daily orally on a continuous basis, with dose escalation following the modified toxicity probability interval method. Seven dose levels were evaluated: 1, 2, 5, 10, 25, 35, and 50 mg. An alternative intermittent dosing regimen (5 days on/2 days off) was also explored at 35 mg twice daily. Part 1B combination dose-finding involved PF-06873600 IR 25 mg twice daily with ET (letrozole or fulvestrant, each administered per standard of care). Letrozole was administered orally once daily together with PF-06873600. No dose adjustment for letrozole was permitted, but dosing interruptions were allowed. Fulvestrant 500 mg was administered intramuscularly on cycle 1 day 1 and day 15, cycle 2 day 1, and then monthly thereafter (±3 days) to accommodate dosing on day 1 of each cycle. No dose adjustment for fulvestrant was permitted. Part 1C evaluated two modified release (MR) formulations of PF-06873600: one in the single-dose setting and the other in the twice-daily setting. A cycle was defined as 28 days, regardless of missed doses or dose delays.
DLT was the primary endpoint of the study, summarized by dose level using the per-protocol analysis set for patients in the dose escalation portion of the study. Efficacy analysis was summarized by dose cohorts for part 2 of the study. For part 1, no formal efficacy analysis was presented. For part 2, tumor response was presented in the form of patient data listings that included, but were not limited to, tumor type, starting dose, tumor response at each visit, and best overall response. In addition, progression date, death date, date of first response, last tumor assessment date, and date of last contact were listed. ORR, PFS, overall survival, TTP, and DoR were summarized and presented as data permitted. For response-based metrics (best overall response, ORR, and DoR), analyses were presented on the basis of confirmed responses. Analyses of PFS and TTP were defined as the time from the date of the first dose. Summaries of the number and percentage of patients with PFS and TTP and data listings by tumor type and dose were generated based on data availability. The 95% confidence intervals (CI) for medians and quartiles were generated based on the Brookmeyer–Crowley method, whereas CIs for the estimated probability of an event at a particular time point were generated using the Greenwood formula. […]

[1] = part 1A 35 mg twice daily, N = 2, DLT-evaluable set
[2] = part 1A 50 mg twice daily, N = 8, DLT-evaluable set

## C[C@@]1(O)CCC[C@H]1n1c(=O)c(C(F)F)cc2cnc(NC3CCN(S(C)(=O)=O)CC3)nc21 [PF-06873600]
25 mg twice daily, single-agent or combination groups
  DLTs at the monotherapy RDE: No DLTs
[1]
  DLT, Cardiac arrest: 0 n (%)
  DLT, Colitis: 0 n (%)
  DLT, Fatigue: 0 n (%)
  DLT, Febrile neutropenia: 0 n (%)
  DLT, Multiple organ dysfunction syndrome: 0 n (%)
  DLT, Neutrophil count decreased: 2 (100.0) n (%)
  DLT, Platelet count decreased: 1 (50.0) n (%)
  DLT, Thrombocytopenia: 0 n (%)
  Patients with any DLTs: 2 (100.0) n (%)
[2]
  DLT, Cardiac arrest: 1 (12.5) n (%)
  DLT, Colitis: 1 (12.5) n (%)
  DLT, Fatigue: 1 (12.5) n (%)
  DLT, Febrile neutropenia: 3 (37.5) n (%)
  DLT, Multiple organ dysfunction syndrome: 1 (12.5) n (%)
  DLT, Neutrophil count decreased: 0 n (%)
  DLT, Platelet count decreased: 0 n (%)
  DLT, Thrombocytopenia: 1 (12.5) n (%)
  Patients with any DLTs: 4 (50.0) n (%)
Part 1A, 42 patients evaluable for DLT
  Patients with DLTs (all treatment-related): 14.3%
single-agent and combination dosing groups
  Recommended dose for expansion (RDE): 25 mg twice daily
